Measured values reported in paper PMC7892954, “In vivo Pharmacokinetic Drug-Drug Interaction Studies Between Fedratinib and Antifungal Agents Based on a Newly Developed and Validated UPLC/MS-MS Method” (Frontiers in Pharmacology, 2021).
Read-outs that look alike come from different tables or passages of the source.

Columns and labels:
[1] = DDI study: pharmacokinetics of fedratinib in rats with or without antifungal drugs; type: in vivo, Sprague-Dawley (SD) rats; conditions: for AUC(0-inf) / AUC(0-t) / Cmax / Tmax / half-life / CL/F / MRT last / MRT inf: male, Sprague-Dawley, rat, plasma, po, 40 mg/kg, 40 mg/kg fedratinib oral gavage, n = 6, Mean ± SD; for CL/F: read-out: CLz/F (converted); for MRT last: read-out: MRT0→t; for MRT inf: read-out: MRT0→∞
Source text: The UPLC-MS/MS procedures were developed and validated to detect fedratinib concentration in plasma to support an investigational study in healthy male Sprague-Dawley (SD) rats (weighing 200 ± 20 g), which were purchased from Laboratory Animal Center of Wenzhou Medical University (Wenzhou, China). The protocols and procedures of the animal experiment were checked in accordance with the regulations defined by Wenzhou Medical University Animal Care and Use Committee (wydw 2018-0002). Before experiment, rats were housed in the environmentally controlled feeding room, and had free access to the water and food.
After 30 min, each rat was administered 40 mg/kg fedratinib by oral gavage. Then, at the time points of 0, 0.333, 0.667, 1, 2, 4, 6, 9, 12, 24, and 48 h, heparinized 1.5 ml polythene tubes were used to collect the blood samples with approximate volume of 0.3 ml. Subsequently, plasma sample (100 µL) was separated and gained after centrifugation of the whole blood samples at room temperature for 10 min with the speed of 4,000 g, and all the plasma samples were placed and held at −80 °C prior to analysis.
Drug and Statistics (DAS) 2.0 software (Shanghai University of Traditional Chinese Medicine, China) was used to analysis the main pharmacokinetic parameters of fedratinib in rats through non-compartmental approach. The comparisons of the main pharmacokinetic parameters of different groups were conducted in one-way analysis of variance equipped with the Dunnett’s test by Statistical Package for the Social Sciences (SPSS Inc., Chicago, IL, United States) version 17.0 software. In any case, if the value of p was below 0.05, it was deemed to be statistically significant.

[2] = set-up: method as in Ogasawara et al., 2020; conditions: a strong CYP3A4 inhibitor, ref Ogasawara et al., 2020; cited from earlier work
[3] = Stability of fedratinib in rat plasma under different conditions (UPLC-MS/MS); type: in vitro ADME; conditions: for Stability RE (%): n = 5
Protocol: The stability of the analyte in rat plasma under various conditions at LQC and HQC concentration levels (n = 5) was assessed, which were subjected to at room temperature for about 2 h, in the auto-sampler for 6 h at 10 °C prior to analysis, three freeze-thaw cycles (−80 °C to room temperature), and also storage at −80 °C for 21 days. The stability results of this assay in rat plasma should be acceptable when five replicates of QC samples at LQC and HQC concentrations were evaluated and compared with the real concentrations.

[4] = healthy volunteers, 2015, cited from earlier work
[5] = 20 mg/kg antifungal 30 min before 40 mg/kg fedratinib oral
[6] = Group A: control (0.5% CMC-Na) 30 min before
[7] = Group B: 20 mg/kg isavuconazole 30 min before
[8] = Group C: 20 mg/kg posaconazole 30 min before
[9] = Group D: 20 mg/kg fluconazole 30 min before
[10] = Group E: 20 mg/kg itraconazole 30 min before

## CC[C@@H]([C@H](C)O)n1ncn(-c2ccc(N3CCN(c4ccc(OC[C@@H]5CO[C@@](Cn6cncn6)(c6ccc(F)cc6F)C5)cc4)CC3)cc2)c1=O [posaconazole]
[1]; [5]
  Order of inhibitory effect on fedratinib metabolism: fluconazole > itraconazole > isavuconazole > posaconazole

## Cc1cnc(Nc2ccc(OCCN3CCCC3)cc2)nc1Nc1cccc(S(=O)(=O)NC(C)(C)C)c1 [Fedratinib]
[2]
  Effect of ketoconazole on systemic exposure of fedratinib: increases the systemic exposure of fedratinib
[3]; 1.5 ng/ml, Auto-sampler 10°C, 6 h
  Stability RE (%): 8.3%
[3]; 1.5 ng/ml, Room temperature, 2 h
  Stability RE (%): 14.1%
[3]; 1.5 ng/ml, Three freeze-thaw (−80 °C to room temperature)
  Stability RE (%): −4.6%
[3]; 1.5 ng/ml, −80°C, 21 days
  Stability RE (%): 2.7%
[3]; 400 ng/ml, Auto-sampler 10°C, 6 h
  Stability RE (%): 11.4%
[3]; 400 ng/ml, Room temperature, 2 h
  Stability RE (%): 10.3%
[3]; 400 ng/ml, Three freeze-thaw (−80 °C to room temperature)
  Stability RE (%): 12.5%
[3]; 400 ng/ml, −80°C, 21 days
  Stability RE (%): 14.2%
[3]; LQC and HQC, all four storage conditions
  Deviation from nominal concentrations (stability): < 15%
[1]; fedratinib co-administrated with posaconazole (Group C)
  Key pharmacokinetic parameters (AUC0→t, AUC0→∞, MRT0→t, MRT0→∞, t1/2, Tmax, CLz/F, Cmax) compared with control Group A: no significant differences
[1]; [6]
  AUC(0-inf): 2150 ± 396 ng·h/mL
  AUC(0-t): 2010 ± 309 ng·h/mL
  Cmax: 101 ± 12.9 ng/mL
  Tmax: 5.43 ± 0.98 h
  half-life: 11.1 ± 2.72 h
  CL/F: 320 mL/min/kg
  MRT last: 14.4 ± 1.41 h
  MRT inf: 15.6 ± 1.65 h
[1]; [7]
  AUC(0-inf): 2720 ± 427 ng·h/mL
  AUC(0-t): 2590 ± 406 ng·h/mL
  Cmax: 123 ± 17.2 ng/mL
  Tmax: 6.4 ± 1.34 h
  half-life: 11.1 ± 2.9 h
  CL/F: 247 mL/min/kg
  MRT last: 14.9 ± 0.87 h
  MRT inf: 15.5 ± 1.34 h
[1]; [8]
  AUC(0-inf): 2510 ± 260 ng·h/mL
  AUC(0-t): 2320 ± 202 ng·h/mL
  Cmax: 98.1 ± 16.6 ng/mL
  Tmax: 6 ± 1.08 h
  half-life: 11.8 ± 2.9 h
  CL/F: 277 mL/min/kg
  MRT last: 14.3 ± 1.21 h
  MRT inf: 14.6 ± 1.32 h
[1]; [9]
  AUC(0-inf): 3890 ± 680 ng·h/mL
  AUC(0-t): 3800 ± 653 ng·h/mL
  Cmax: 232 ± 33.1 ng/mL
  Tmax: 7.8 ± 1.64 h
  half-life: 10.9 ± 2.38 h
  CL/F: 176 mL/min/kg
  MRT last: 13.4 ± 1.3 h
  MRT inf: 13.9 ± 1.36 h
[1]; [10]
  AUC(0-inf): 3320 ± 383 ng·h/mL
  AUC(0-t): 3130 ± 317 ng·h/mL
  Cmax: 187 ± 22.2 ng/mL
  Tmax: 7.2 ± 1.64 h
  half-life: 10.2 ± 3.39 h
  CL/F: 204 mL/min/kg
  MRT last: 14.5 ± 1.95 h
  MRT inf: 15.2 ± 2.1 h
[4]; 40 mg pantoprazole once daily with a single dose of 500 mg fedratinib, ref Xu et al.
  Impact of pantoprazole on the pharmacokinetics of fedratinib: no significantly impact
[4]; ref Zhang et al.
  Effect of intake of food on pharmacokinetics and bioavailability of fedratinib: slightly affect

## CCC(C)n1ncn(-c2ccc(N3CCN(c4ccc(OCC5COC(Cn6cncn6)(c6ccc(Cl)cc6Cl)O5)cc4)CC3)cc2)c1=O (stereo not drawn) [itraconazole]
[1]; [5]
  Order of inhibitory effect on fedratinib metabolism: fluconazole > itraconazole > isavuconazole > posaconazole

## C[C@@H](c1nc(-c2ccc(C#N)cc2)cs1)[C@](O)(Cn1cncn1)c1cc(F)ccc1F [isavuconazole]
[1]; [5]
  Inhibitory effect on fedratinib metabolism: inhibitory effect on fedratinib metabolism to a certain extent
  Order of inhibitory effect on fedratinib metabolism: fluconazole > itraconazole > isavuconazole > posaconazole
